Patent US20230183193A1, “4-DIFLUOROMETHYL BENZOYL AMIDES WITH HERBICIDAL ACTION” (BAYER CROPSCIENCE AKTIENGESELLSCHAFT, priority 2017, published 2023)

Legend:
Type in all cases: in vivo
ECHCG = experiment: Post-emergence herbicidal action, ECHCG; conditions: 80 g/ha, Table C
Summary of the method: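 Weed and crop plants grown in sandy loam in the greenhouse, treated at the one-leaf stage 2–3 weeks after sowing. Damage scored visually after about 3 weeks vs untreated controls (0% = control, 100% = dead).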

Amaranthus retroflexus [1] = experiment: Post-emergence herbicidal action, AMARE; conditions: 80 g/ha, Table D
Summary of the method: (§1)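 Herbicidal effect is rated visually as percent versus untreated plants (100% = dead, 0% = like control) about 3 weeks after spraying. Plants were sown in sandy loam in the greenhouse and sprayed on green parts at the one-leaf stage, 2 to 3 weeks post-sowing.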

Amaranthus retroflexus [2] = experiment: Pre-emergence herbicidal action, AMARE; conditions: dosage 320 g/ha, scored visually after 3 weeks vs untreated controls
Summary of the method: (§2)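 Weed seeds were laid out in sandy loam and covered with soil, then the soil surface was treated with an aqueous suspension or emulsion of the formulated compound containing 0.2% wetting agent. Pots stayed in the greenhouse for 3 weeks before damage was rated visually against untreated plants.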

Stellaria media [3] = experiment: Post-emergence herbicidal action, STEME; conditions: 80 g/ha, Table D
Summary of the method: as §1

Pharbitis purpureum = experiment: Post-emergence herbicidal action, PHBPU; conditions: 80 g/ha, Table D
Summary of the method: as §1

Viola tricolor [4] = experiment: Pre-emergence herbicidal action, VIOTR; conditions: dosage 320 g/ha, scored visually after 3 weeks vs untreated controls
Summary of the method: as §2

Matricaria inodora = experiment: Pre-emergence herbicidal action, MATIN; conditions: dosage 320 g/ha, scored visually after 3 weeks vs untreated controls
Summary of the method: as §2

Cyperus serotinus = experiment: Pre-emergence herbicidal action, CYPES; conditions: dosage 320 g/ha, scored visually after 3 weeks vs untreated controls
Summary of the method: as §2

Abutilon theophrasti [5] = experiment: Pre-emergence herbicidal action, ABUTH; conditions: dosage 320 g/ha, scored visually after 3 weeks vs untreated controls
Summary of the method: as §2

Stellaria media [6] = experiment: Pre-emergence herbicidal action, STEME; conditions: dosage 320 g/ha, scored visually after 3 weeks vs untreated controls
Summary of the method: as §2

Setaria viridis [7] = experiment: Post-emergence herbicidal action, SETVI; conditions: 80 g/ha, Table C
Summary of the method: as §1

Viola tricolor [8] = experiment: Post-emergence herbicidal action, VIOTR; conditions: 80 g/ha, Table D
Summary of the method: as §1

Avena fatua [9] = experiment: Pre-emergence herbicidal action, AVEFA; conditions: dosage 320 g/ha, scored visually after 3 weeks vs untreated controls
Summary of the method: as §2

Alopecurus myosuroides [10] = experiment: Pre-emergence herbicidal action, ALOMY; conditions: dosage 320 g/ha, scored visually after 3 weeks vs untreated controls
Summary of the method: as §2

Alopecurus myosuroides [11] = experiment: Post-emergence herbicidal action, ALOMY; conditions: 80 g/ha, Table C
Method: Seeds of monocotyledonous and dicotyledonous weed and crop plants are laid out in sandy loam soil in wood-fiber pots, covered with soil and cultivated in a greenhouse under good growth conditions. 2 to 3 weeks after sowing, the test plants are treated at the one-leaf stage. The compounds of the invention, formulated in the form of wettable powders (WP) or as emulsion concentrates (EC), are then sprayed onto the green parts of the plants in the form of an aqueous suspension or emulsion at a water application rate equating to […], with addition of 0.2% wetting agent. After the test plants have been left to stand in the greenhouse under optimal growth conditions for about 3 weeks, the action of the preparations is assessed visually in comparison to untreated controls (herbicidal action in percent (%): 100% activity=the plants have died, 0% activity=like control plants). […] At the same time, inventive compounds leave Gramineae crops such as barley, wheat, rye, millet/sorghum, corn or rice virtually undamaged when applied post-emergence, even at high active compound dosages. In addition, some substances are also harmless to dicotyledonous crops such as soya, cotton, oilseed rape, sugar beet or potatoes. Some of the compounds according to the invention have high selectivity and are therefore suitable for controlling unwanted vegetation in agricultural crops by the post-emergence method. The data of Tables C and D below illustrate, in an exemplary manner, the […] herbicidal action of the compounds according to the invention, the herbicidal activity being stated in percent.
For comparison, the herbicidal activity of numerous compounds according to the invention was tested with the structurally closest compounds known from the documents WO 2011/035874, WO 2012/028579 and WO 2012/126932, by the pre- and post-emergence method.

Abutilon theophrasti [12] = experiment: Post-emergence herbicidal action, ABUTH; conditions: 80 g/ha, Table D
Summary of the method: as §1

Avena fatua [13] = experiment: Post-emergence herbicidal action, AVEFA; conditions: 80 g/ha, Table C
Summary of the method: as §1

Setaria viridis [14] = experiment: Pre-emergence herbicidal action, SETVI; conditions: dosage 320 g/ha, scored visually after 3 weeks vs untreated controls
Summary of the method: as §2

Compound | Herbicidal activity ECHCG (ECHCG) [%] | herbicidal activity AMARE (Amaranthus retroflexus [1]) [%] | herbicidal activity AMARE (Amaranthus retroflexus [2]) [%] | Herbicidal activity STEME (Stellaria media [3]) [%] | Herbicidal activity PHBPU (Pharbitis purpureum) [%] | herbicidal activity VIOTR (Viola tricolor [4]) [%] | herbicidal activity MATIN (Matricaria inodora) [%] | herbicidal activity CYPES (Cyperus serotinus) [%] | herbicidal activity ABUTH (Abutilon theophrasti [5]) [%] | Herbicidal activity STEME (Stellaria media [6]) [%] | herbicidal activity SETVI (Setaria viridis [7]) [%] | herbicidal activity VIOTR (Viola tricolor [8]) [%] | herbicidal activity AVEFA (Avena fatua [9]) [%] | herbicidal activity ALOMY (Alopecurus myosuroides [10]) [%] | herbicidal activity ALOMY (Alopecurus myosuroides [11]) [%] | herbicidal activity ABUTH (Abutilon theophrasti [12]) [%] | herbicidal activity AVEFA (Avena fatua [13]) [%] | herbicidal activity SETVI (Setaria viridis [14]) [%]
CCc1c(C(=O)Nc2nnnn2C)ccc(C(F)F)c1S(C)(=O)=O [Example 1-15] | 90 | 100 | 100 | 100 | 90 | 100 | 100 | 100 | 100 | 100 | 80 | 100 | 100 | 100 | 90 | 90 | 100 | 100
CCc1c(C(=O)Nc2nnnn2C)ccc(C(F)F)c1[S+]([O-])CC (stereo not drawn) [Example 1-17] | 90 | 100 | 100 | 100 | 90 | 100 | 100 | 100 | 100 | 100 | 90 | 100 | 100 | 100 | 90 | 100 | 90 | 100
CCc1c(C(=O)Nc2nnnn2C)ccc(C(F)F)c1S(=O)(=O)CC [Example 1-18] | 90 | 100 | 100 | 100 | 90 | 100 | 100 | 100 | 100 | 100 | 100 | 100 | 100 | 100 | 90 | 100 | 100 | 100
CSc1c(C(F)F)ccc(C(=O)Nc2nnnn2C)c1C1CC1 [Example 1-25] | 100 | 100 | 100 | 100 | 100 | 100 | 100 | 100 | 100 | 100 | 100 | 100 | 100 | 100 | 100 | 100 | 100 | 100
Cn1nnnc1NC(=O)c1ccc(C(F)F)c([S+](C)[O-])c1C1CC1 (stereo not drawn) [Example 1-26] | 100 | 100 | 100 | 100 | 90 | 100 | 100 | 100 | 100 | 100 | 100 | 100 | 100 | 100 | 90 | 100 | 100 | 100
Cn1nnnc1NC(=O)c1ccc(C(F)F)c(S(C)(=O)=O)c1C1CC1 [Example 1-27] | 100 | 100 | 100 | 100 | 90 | 100 | 100 | 100 | 100 | 100 | 100 | 100 | 100 | 100 | 100 | 100 | 100 | 100
CCSc1c(C(F)F)ccc(C(=O)Nc2nnnn2C)c1C1CC1 [Example 1-28] | 100 | 100 | 100 | 100 | 100 | 100 | 100 | 100 | 100 | 100 | 100 | 100 | 100 | 100 | 90 | 100 | 100 | 100
CC[S+]([O-])c1c(C(F)F)ccc(C(=O)Nc2nnnn2C)c1C1CC1 (stereo not drawn) [Example 1-29] | 100 | 100 | 100 | 100 | 100 | 100 | 100 | 100 | 100 | 100 | 100 | 100 | 100 | 100 | 100 | 100 | 90 | 100
CCS(=O)(=O)c1c(C(F)F)ccc(C(=O)Nc2nnnn2C)c1C1CC1 [Example 1-30] | 100 | 90 | 100 | 100 | 90 | 100 | 100 | 90 | 100 | 100 | 100 | 100 | 100 | 100 | 100 | 100 | 100 | 100
CSc1c(C(F)F)ccc(C(=O)Nc2nnnn2C)c1F [Example 1-37] | 100 | 100 | 100 | 100 | 90 | 100 | 100 | 100 | 100 | 100 | 100 | 100 | 100 | 100 | 80 | 90 | 100 | 100
